In patent US12215387B2, “Biomarker predictive of responsiveness to alpha 7 nicotinic acetylcholine receptor activator treatment” (Novartis AG, priority 2012, dated 2025):

System: patients with schizophrenia
Experiment: Continuous Paired Associates Learning (CPAL) test of the CogState schizophrenia battery, by CYP1A2 rs2069514 genotype
Type: in vivo, human
Source text: To measure the effect of alpha 7 nicotinic acetylcholine receptor activator treatment on the cognitive skills of schizophrenic patients, an adequate cognitive test battery (CogState™) with short duration (as described in detail below) was applied allowing multiple time points measurements during the treatment period (Pietrzak, et al 2009; Maruff, et al 2009).
The CPAL task is a validated test that assesses visual episodic memory (associate learning). This test has been used previously in schizophrenia. Before beginning this task, the test supervisor reads the full instructions to the patient from the test supervisor script. On the CPAL test, participants must learn a series of associations between a set of difficult to verbalize patterns and locations. In the presentation phase of the task, the pattern appears at the location and the subject is required to acknowledge that they have seen the pattern by touching the location at which it appears. At this stage of the task the patient will also see that there are two locations at which no target appears (distractor locations). Patterns are presented, in random order. However, once presented the pattern remains at the same location throughout the task. In the learning phase of the task, patients must place each of the eight patterns in their correct locations. They must do this in six rounds. For the first round, one of the patterns is presented in the centre location and the subject is required to remember the location at which it had been shown. They indicate the location by touching it. If they touch the incorrect location, a visual and audible signal occurs (a red cross appears over the location and a buzzer sound is presented). The patient is then required to choose a second location. This process continues until the patient has correctly placed all […] of the targets in their correct locations. Once all eight patterns have been placed correctly, the second round begins. In the second round the patterns remain in the same locations, but their order of presentation in the centre of the screen is different to that of the first round (randomized). The process of placing each target in the correct location proceeds as it did in the first round. When the second round is complete, the same process is repeated as the rounds progress the number of errors made in placing the patterns in their correct locations reduces. Administration time is approximately 5 minutes in healthy volunteers. Patients with Schizophrenia would be expected to complete the task within about 12 minutes.
The assessment of activity was obtained from a statistical analysis of the post dose Area Under the Effect Curve (AUEC) 4-10 on CPAL as follows: variables were separately analyzed by means of a linear mixed effect model adjusted for the period-specific baseline value for the scale, the treatment group, the period, and the sequence as fixed effects, and for the patient as a random effect. The period-specific baseline value for the scale was obtained from the average of the period-specific Day −1 values and from the pre-dose value. The mean treatment difference (and its 95% CI) between each B-5 dose group and placebo was obtained from the model. The effect size was obtained by dividing the mean treatment difference (and its 95% CI) by the square root of twice the estimated variance of the residual error. Activity, as defined in the paragraph above, was assessed from the effect size of CPAL.
In an attempt to identify a subset of patients who respond to B-5 treatment, a study in a population of 29 individuals using the CPAL assessment was conducted. The purpose was to investigate the relationship between the genetic variants rs2069514 (SEQ IDs NO. 1 and 2) in the CYP1A2 gene and B-5 efficacy in the study. In the study, B-5 mono-fumarate was used in the form of hard gelatin capsules as described in Example E. […]

Cc1ccc(-c2ccc(O[C@H]3CN4CCC3CC4)cn2)cc1 [B-5, (R)-3-(6-p-tolyl-pyridin-3-yloxy)-1-aza-bicyclo[2.2.2]octane]
CPAL - AUC4-10 Estimated mean AUC 4-10 (CYP1A2 genotype GG (n = 15), B-5 2 mg): 414.75 Total # errors × Hours | CPAL - AUC4-10 Placebo - B-5 Effect size (CYP1A2 genotype GG (n = 15), B-5 2 mg, P-value 0.59): 0.15 | CPAL - AUC4-10 Estimated mean AUC 4-10 (CYP1A2 genotype GG (n = 15), B-5 15 mg): 481.4 Total # errors × Hours | CPAL - AUC4-10 Placebo - B-5 Effect size (CYP1A2 genotype GG (n = 15), B-5 15 mg, P-value 0.6706): −0.12 | CPAL - AUC4-10 Estimated mean AUC 4-10 (CYP1A2 genotype GG (n = 15), B-5 100 mg): 457.45 Total # errors × Hours | CPAL - AUC4-10 Placebo - B-5 Effect size (CYP1A2 genotype GG (n = 15), B-5 100 mg, P-value 0.9344): −0.02 | CPAL - AUC4-10 Estimated mean AUC 4-10 (CYP1A2 genotypes AA + AG (n = 14), B-5 2 mg): 411.15 Total # errors × Hours | CPAL - AUC4-10 Placebo - B-5 Effect size (CYP1A2 genotypes AA + AG (n = 14), B-5 2 mg, P-value 0.018): 0.68 | CPAL - AUC4-10 Estimated mean AUC 4-10 (CYP1A2 genotypes AA + AG (n = 14), B-5 15 mg): 372.82 Total # errors × Hours | CPAL - AUC4-10 Placebo - B-5 Effect size (CYP1A2 genotypes AA + AG (n = 14), B-5 15 mg, P-value 0.0023): 0.91 | CPAL - AUC4-10 Estimated mean AUC 4-10 (CYP1A2 genotypes AA + AG (n = 14), B-5 100 mg): 384.9 Total # errors × Hours | CPAL - AUC4-10 Placebo - B-5 Effect size (CYP1A2 genotypes AA + AG (n = 14), B-5 100 mg, P-value 0.0043): 0.83 | improvement on cognitive function (patients homozygous rs2069514-G/G): did not show any significant improvement | response on visual learning and memory (CPAL) compared to placebo (patients rs2069514 A/A or A/G, 2 mg p=0.018, 15 mg p=0.0023, 100 mg p=0.0043): significant response
